According to patent publication US10123993B2, “Cyclic ureas as inhibitors of rock” (BRISTOL-MYERS SQUIBB COMPANY, priority 2015, dated 2018):
pIC50: −log10 of the molar value.

The compounds below were run against ROCK2 (Homo sapiens, UniProt O75116) (assay: ROCK2 kinase inhibition assay (Caliper LABCHIP, FITC peptide substrate)). Conditions: 5 μM ATP, 1.5 μM peptide substrate; value ranges.
ROCK2, sequence (O75116 whole entry, species assumed): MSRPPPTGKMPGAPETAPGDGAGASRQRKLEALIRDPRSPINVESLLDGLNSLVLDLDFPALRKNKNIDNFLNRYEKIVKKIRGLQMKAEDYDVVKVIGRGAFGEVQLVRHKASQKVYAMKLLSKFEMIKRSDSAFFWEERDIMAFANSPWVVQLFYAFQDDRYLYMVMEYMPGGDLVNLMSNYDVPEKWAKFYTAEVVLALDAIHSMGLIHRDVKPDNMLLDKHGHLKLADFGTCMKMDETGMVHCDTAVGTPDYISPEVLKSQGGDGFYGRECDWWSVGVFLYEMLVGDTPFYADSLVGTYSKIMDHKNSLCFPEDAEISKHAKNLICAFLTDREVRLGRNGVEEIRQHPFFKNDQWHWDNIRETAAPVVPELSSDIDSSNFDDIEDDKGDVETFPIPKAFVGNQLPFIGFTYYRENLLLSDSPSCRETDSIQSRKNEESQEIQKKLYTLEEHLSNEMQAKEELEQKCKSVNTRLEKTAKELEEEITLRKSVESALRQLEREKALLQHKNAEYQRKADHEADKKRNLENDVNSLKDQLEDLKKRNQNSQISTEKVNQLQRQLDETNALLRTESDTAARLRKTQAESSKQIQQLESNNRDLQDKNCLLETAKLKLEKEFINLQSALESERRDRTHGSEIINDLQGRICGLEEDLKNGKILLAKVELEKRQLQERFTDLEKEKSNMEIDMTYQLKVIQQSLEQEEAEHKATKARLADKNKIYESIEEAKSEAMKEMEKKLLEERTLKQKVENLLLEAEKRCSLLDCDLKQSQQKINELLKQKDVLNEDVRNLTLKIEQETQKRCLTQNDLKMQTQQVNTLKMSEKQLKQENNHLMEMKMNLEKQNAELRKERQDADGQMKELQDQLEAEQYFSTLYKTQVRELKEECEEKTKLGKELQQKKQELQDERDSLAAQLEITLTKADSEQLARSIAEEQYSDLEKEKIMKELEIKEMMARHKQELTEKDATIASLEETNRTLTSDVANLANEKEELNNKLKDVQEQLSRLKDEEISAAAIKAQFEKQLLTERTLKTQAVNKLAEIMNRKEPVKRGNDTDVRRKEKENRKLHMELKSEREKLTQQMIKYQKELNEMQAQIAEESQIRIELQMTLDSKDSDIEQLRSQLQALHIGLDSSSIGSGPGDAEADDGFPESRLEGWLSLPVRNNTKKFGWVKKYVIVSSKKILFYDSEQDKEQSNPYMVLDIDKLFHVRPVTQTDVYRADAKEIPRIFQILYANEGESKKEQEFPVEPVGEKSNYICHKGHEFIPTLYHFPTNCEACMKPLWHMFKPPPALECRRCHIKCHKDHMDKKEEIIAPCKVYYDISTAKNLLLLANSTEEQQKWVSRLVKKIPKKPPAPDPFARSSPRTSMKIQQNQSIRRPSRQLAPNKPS
Assay type: biochemical
Procedure: The effectiveness of compounds of the present invention as ROCK inhibitors can be determined in a 30 μL assay containing 20 mM HEPES, pH 7.5, 20 mM MgCl2, 0.015% Brij-35, 4 mM DTT, 5 μM ATP and 1.5 μM peptide substrate (FITC-AHA-AKRRRLSSLRA-OH). Compounds were dissolved in DMSO so that the final concentration of DMSO was <2%, and the reaction was initiated with Rho kinase variants. After incubation, the reaction was terminated by the addition of EDTA and the phosphorylated and non-phosphorylated peptides separated using a LABCHIP® 3000 Reader (Caliper Life Sciences). […] Compounds were tested in dose-response format, and the inhibition of kinase activity was calculated at each concentration of compound. The inhibition data were fit using a curve-fitting program to determine the IC50; i.e., the concentration of compound required to inhibit 50% of kinase activity.
Representative Examples were tested in the ROCK2 assay described above and found having ROCK inhibitory activity.
For `CCNC(=O)C(c1cccc(OC)c1)N1CCN(c2ccc(-c3cn[nH]c3)cc2)C1=O` (single isomer, unassigned) [Example 289, 2-(3-(4-(1H-Pyrazol-4-yl)phenyl)-2-oxoimidazolidin-1-yl)-N-ethyl-2-(3-methoxyphenyl)acetamide], the pIC50 was 7.70 to 8.68.
For `CCNC(=O)C(c1cccc(OC)c1)N1CCN(c2ccc(-c3cn[nH]c3)cc2)C1=O` (single isomer, unassigned) [Example 290, 2-(3-(4-(1H-Pyrazol-4-yl)phenyl)-2-oxoimidazolidin-1-yl)-N-ethyl-2-(3-methoxyphenyl)acetamide], the pIC50 was 6.70 to 7.70.
Compound `CNC(=O)C(c1cccc(OC)c1)N1CCN(c2ccc(-c3cn[nH]c3)cc2)C1=O` (single isomer, unassigned) [Example 291, 2-(3-(4-(1H-pyrazol-4-yl)phenyl)-2-oxoimidazolidin-1-yl)-2-(3-methoxyphenyl)-N-methylacetamide] has a pIC50 of 6.70 to 7.70.
`CNC(=O)C(c1cccc(OC)c1)N1CCN(c2ccc(-c3cn[nH]c3)cc2)C1=O` (single isomer, unassigned) [Example 292, 2-(3-(4-(1H-pyrazol-4-yl)phenyl)-2-oxoimidazolidin-1-yl)-2-(3-methoxyphenyl)-N-methylacetamide] showed a pIC50 of 7.70 to 8.68.
Work on `COc1cccc(C(C(=O)NCC(C)C)N2CCN(c3ccc(-c4cn[nH]c4)cc3)C2=O)c1` (single isomer, unassigned) [Example 293, 2-(3-(4-(1H-pyrazol-4-yl)phenyl)-2-oxoimidazolidin-1-yl)-N-isobutyl-2-(3-methoxyphenyl)acetamide] yielded a pIC50 of 5.70 to 6.70.
`COc1cccc(C(C(=O)NCC(C)C)N2CCN(c3ccc(-c4cn[nH]c4)cc3)C2=O)c1` (single isomer, unassigned) [Example 294, 2-(3-(4-(1H-pyrazol-4-yl)phenyl)-2-oxoimidazolidin-1-yl)-N-isobutyl-2-(3-methoxyphenyl)acetamide] showed a pIC50 of 7.70 to 8.68.
`COc1cccc(C(C(N)=O)N2CCN(c3ccc(-c4cn[nH]c4)cc3)C2=O)c1` (single isomer, unassigned) [Example 295, 2-(3-(4-(1H-pyrazol-4-yl)phenyl)-2-oxoimidazolidin-1-yl)-2-(3-methoxyphenyl)acetamide] was tested, and the pIC50 was 6.70 to 7.70.
Compound `COc1cccc(C(C(=O)NCC2CC2)N2CCN(c3ccc(-c4cn[nH]c4)cc3)C2=O)c1` (single isomer, unassigned) [Example 296, 2-(3-(4-(1H-pyrazol-4-yl)phenyl)-2-oxoimidazolidin-1-yl)-N-(cyclopropylmethyl)-2-(3-methoxyphenyl)acetamide] has a pIC50 of 6.70 to 7.70.
`COc1cccc(C(C(=O)NCC2CC2)N2CCN(c3ccc(-c4cn[nH]c4)cc3)C2=O)c1` (single isomer, unassigned) [Example 297, 2-(3-(4-(1H-pyrazol-4-yl)phenyl)-2-oxoimidazolidin-1-yl)-N-(cyclopropylmethyl)-2-(3-methoxyphenyl)acetamide] gave a pIC50 of 5.70 to 6.70.
`CNC(=O)C(c1ccccc1)N1CCN(c2ccc(-c3cn[nH]c3)cc2)C1=O` (single isomer, unassigned) [Example 299, 2-(3-(4-(1H-pyrazol-4-yl)phenyl)-2-oxoimidazolidin-1-yl)-N-methyl-2-phenylacetamide] showed a pIC50 of 6.70 to 7.70.
Compound `COc1cccc(C(C(=O)NC2CC2)N2CCN(c3ccc(-c4cn[nH]c4)cc3)C2=O)c1` (single isomer, unassigned) [Example 300, 2-(3-(4-(1H-pyrazol-4-yl)phenyl)-2-oxoimidazolidin-1-yl)-N-cyclopropyl-2-(3-methoxyphenyl)acetamide] has a pIC50 of 6.70 to 7.70.
For `COc1cccc(C(C(=O)NC2CC2)N2CCN(c3ccc(-c4cn[nH]c4)cc3)C2=O)c1` (single isomer, unassigned) [Example 301, 2-(3-(4-(1H-pyrazol-4-yl)phenyl)-2-oxoimidazolidin-1-yl)-N-cyclopropyl-2-(3-methoxyphenyl)acetamide], the pIC50 was 7.70 to 8.68.
`COc1cccc(C(C(=O)NCC(C)(C)O)N2CCN(c3ccc(-c4cn[nH]c4)cc3)C2=O)c1` (single isomer, unassigned) [Example 303, 2-(3-(4-(1H-pyrazol-4-yl)phenyl)-2-oxoimidazolidin-1-yl)-N-(2-hydroxy-2-methylpropyl)-2-(3-methoxyphenyl)acetamide] gave a pIC50 of 6.70 to 7.70.
Work on `CNC(=O)C(C)(c1cccc(OC)c1)N1CCN(c2ccc(-c3cn[nH]c3)cc2)C1=O` (single isomer, unassigned) [Example 304, 2-(3-(4-(1H-Pyrazol-4-yl)phenyl)-2-oxoimidazolidin-1-yl)-2-(3-methoxyphenyl)-N-methylpropanamide] yielded a pIC50 of 5.70 to 6.70.
`CNCC(c1cccc(OC)c1)N1CCN(c2ccc(-c3cn[nH]c3)cc2)C1=O` (single isomer, unassigned) [Example 309, 1-(4-(1H-Pyrazol-4-yl)phenyl)-3-(1-(3-methoxyphenyl)-2-(methylamino)ethyl)imidazolidin-2-one] gave a pIC50 of 6.70 to 7.70.
With `CNCC(c1cccc(OC)c1)N1CCN(c2ccc(-c3cn[nH]c3)cc2)C1=O` (single isomer, unassigned) [Example 310, 1-(4-(1H-Pyrazol-4-yl)phenyl)-3-(1-(3-methoxyphenyl)-2-(methylamino)ethyl)imidazolidin-2-one] the pIC50 was 7.70 to 8.68.
`COc1cccc(C(CO)n2ccn(-c3ccc(-c4cn[nH]c4)cc3)c2=O)c1` (single isomer, unassigned) [Example 323, 1-(4-(1H-Pyrazol-4-yl)phenyl)-3-(2-hydroxy-1-(3-methoxyphenyl)ethyl)-1H-imidazol-2(3H)-one] gave a pIC50 of 5.70 to 6.70.
For `COc1cccc(C(CO)n2ccn(-c3ccc(-c4cn[nH]c4)cc3)c2=O)c1` (single isomer, unassigned) [Example 324, 1-(4-(1H-Pyrazol-4-yl)phenyl)-3-(2-hydroxy-1-(3-methoxyphenyl)ethyl)-1H-imidazol-2(3H)-one], the pIC50 was > 8.70.
Work on `COc1cccc(C(C)n2ccn(-c3ccc(-c4ccnc5[nH]ccc45)cc3)c2=O)c1` (single isomer, unassigned) [Example 325, 1-(4-(1H-Pyrrolo[2,3-b]pyridin-4-yl)phenyl)-3-(1-(3-methoxyphenyl)ethyl)-1H-imidazol-2(3H)-one] yielded a pIC50 of 6.70 to 7.70.
With `COc1cccc(C(C)n2ccn(-c3ccc(-c4ccnc5[nH]ccc45)cc3)c2=O)c1` (single isomer, unassigned) [Example 326, 1-(4-(1H-Pyrrolo[2,3-b]pyridin-4-yl)phenyl)-3-(1-(3-methoxyphenyl)ethyl)-1H-imidazol-2(3H)-one] the pIC50 was 7.70 to 8.68.
With `COc1cccc(C(C)n2ccn(-c3ccc(-c4ccnc(F)c4)cc3)c2=O)c1` (single isomer, unassigned) [Example 327, 1-(4-(2-fluoropyridin-4-yl)phenyl)-3-(1-(3-methoxyphenyl)ethyl)-1H-imidazol-2(3H)-one] the pIC50 was 5.70 to 6.70.
With `COc1cccc(C(C)n2ccn(-c3ccc(-c4cn[nH]c4)cc3)c2=O)c1` (single isomer, unassigned) [Example 339, 1-(4-(1H-pyrazol-4-yl)phenyl)-3-(1-(3-methoxyphenyl)ethyl)-1H-imidazol-2(3H)-one] the pIC50 was > 8.70.
Compound `COc1cccc(C(C)n2ccn(-c3ccc(-c4cn[nH]c4)cc3)c2=O)c1` (single isomer, unassigned) [Example 340, 1-(4-(1H-pyrazol-4-yl)phenyl)-3-(l-(3-methoxyphenyl)ethyl)-1H-imidazol-2(3H)-one] has a pIC50 of 6.70 to 7.70.
